What was measured:
[1] = system: T47D; experiment: Antiproliferative activity against human T47D cells incubated for 6 days with replacement of medium every 2 to 3 days by MTT assay; assay type: functional, cell-based
[2] = target: T1, von Hippel-Lindau disease tumor suppressor/Estrogen receptor (Homo sapiens, UniProt P03372+P40337); experiment: Induction of VHL-mediated ERalpha degradation in human T47D cells assessed as maximum degradation by western blot analysis relative to control; assay type: cell-based
Target sequence in this assay (P40337 whole entry, looked up, one chain of several): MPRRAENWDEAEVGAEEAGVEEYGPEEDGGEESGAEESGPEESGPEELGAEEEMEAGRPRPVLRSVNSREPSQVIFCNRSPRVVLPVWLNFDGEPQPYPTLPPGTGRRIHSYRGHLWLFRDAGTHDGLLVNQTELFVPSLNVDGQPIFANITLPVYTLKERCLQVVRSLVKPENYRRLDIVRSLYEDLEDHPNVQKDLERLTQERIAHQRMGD

[3] = system: MCF7; experiment: Antiproliferative activity against human MCF7 cells incubated for 6 days with replacement of medium every 2 to 3 days by MTT assay; assay type: functional, cell-based
[4] = system: MCF7; experiment: Antiproliferative activity against human MCF7 cells incubated for 6 days with replacement of medium every 2 to 3 days by MTT assay relative to control; assay type: functional; conditions: time 6 day
[5] = system: T47D; experiment: Antiproliferative activity against human T47D cells incubated for 6 days with replacement of medium every 2 to 3 days by MTT assay relative to control; assay type: functional; conditions: time 6 day
[6] = target: T1, von Hippel-Lindau disease tumor suppressor/Estrogen receptor; experiment: Induction of VHL-mediated ERalpha degradation in human T47D cells by western blot analysis; assay type: cell-based
Target sequence in this assay (P40337 whole entry, one chain of several): as the sequence (P40337 whole entry, looked up, one chain of several) above

[7] = target: T1, von Hippel-Lindau disease tumor suppressor/Estrogen receptor; experiment: Induction of VHL-mediated ERalpha degradation in human MCF7 cells by western blot analysis; assay type: cell-based
Target sequence in this assay (P40337 whole entry, one chain of several): as the sequence (P40337 whole entry, looked up, one chain of several) above

[8] = target: T1, von Hippel-Lindau disease tumor suppressor/Estrogen receptor; experiment: Induction of VHL-mediated ERalpha degradation in human MCF7 cells assessed as maximum degradation by western blot analysis relative to control; assay type: cell-based
Target sequence in this assay (P40337 whole entry, looked up, one chain of several): as above

[9] = system: MCF7; experiment: Growth inhibition of human MCF7 cells harboring ER D538G mutant incubated for 5 days by PrestoBlue cell viability assay; assay type: functional, cell-based; conditions: MCF7, 120 h
[10] = system: MCF7; experiment: Growth inhibition of human MCF7 cells harboring wild type estrogen receptor incubated for 5 days by PrestoBlue cell viability assay; assay type: functional, cell-based; conditions: MCF7, 120 h
[11] = system: MCF7; experiment: Growth inhibition of human MCF7 cells harboring ER Y537S mutant incubated for 5 days by PrestoBlue cell viability assay; assay type: functional, cell-based; conditions: MCF7, 120 h
[12] = target: T2, Estrogen receptor (Homo sapiens, UniProt P03372); experiment: Induction of XIAP-mediated estrogen receptor alpha degradation in human MCF7 cells incubated for 4 hrs by western blot analysis; assay type: cell-based
T2 sequence (P03372 whole entry): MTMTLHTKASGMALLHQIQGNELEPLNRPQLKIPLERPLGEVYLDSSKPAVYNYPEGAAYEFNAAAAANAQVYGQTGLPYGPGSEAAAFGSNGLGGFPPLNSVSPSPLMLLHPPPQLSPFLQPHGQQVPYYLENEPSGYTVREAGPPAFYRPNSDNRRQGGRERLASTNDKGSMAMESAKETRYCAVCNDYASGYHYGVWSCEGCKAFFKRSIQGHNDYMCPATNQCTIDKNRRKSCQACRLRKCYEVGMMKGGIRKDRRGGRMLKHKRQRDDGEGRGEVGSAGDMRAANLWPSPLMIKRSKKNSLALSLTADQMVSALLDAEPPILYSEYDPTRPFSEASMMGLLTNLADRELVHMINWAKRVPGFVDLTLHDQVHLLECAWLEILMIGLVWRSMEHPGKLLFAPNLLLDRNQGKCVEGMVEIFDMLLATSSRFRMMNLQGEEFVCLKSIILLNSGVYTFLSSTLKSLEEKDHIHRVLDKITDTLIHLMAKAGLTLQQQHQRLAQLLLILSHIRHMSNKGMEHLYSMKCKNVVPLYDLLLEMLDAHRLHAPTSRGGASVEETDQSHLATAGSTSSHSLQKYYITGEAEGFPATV

[13] = system: MCF7; experiment: Antiproliferative activity against human MCF7 cells incubated for 72 hrs by crystal violet staining based assay; assay type: functional, cell-based; conditions: MCF7, 72 h
[14] = system: T47D; experiment: Antiproliferative activity against human T47D cells incubated for 72 hrs by crystal violet staining based assay; assay type: functional, cell-based
[15] = system: MCF7; experiment: Induction of IAP-mediated estrogen receptor alpha degradation in human MCF7 cells at <1 uM by western blot analysis relative to control; assay type: cell-based; conditions: dose microM <1

Structure (SMILES): Cc1ncsc1-c1ccc([C@H](C)NC(=O)[C@@H]2C[C@@H](O)CN2C(=O)[C@@H](NC(=O)CCCCOc2ccc(/C=N/NC(=O)c3ccc(C(=O)c4c(-c5ccc(O)cc5)sc5cc(O)ccc45)cc3)cc2)C(C)(C)C)cc1
- IC50 [1]: 65.2 nM
- Imax [2]: > 95%
- IC50 [3]: 69.1 nM
- Imax [4]: 60%
- Imax [5]: 73%
- DC50 [6]: 10.3 nM
- DC50 [7]: 7.7 nM
- Imax [8]: 95%

Structure (SMILES): CCN(CCCCCCCC(=O)N[C@H](C(=O)N1C[C@H](O)C[C@H]1C(=O)N[C@@H](C)c1ccc(-c2scnc2C)cc1)C(C)(C)C)CCOc1ccc(C(=O)c2c(-c3ccc(O)cc3)sc3cc(O)ccc23)cc1
- IC50 [9]: 6.1 nM
- IC50 [10]: 0.8 nM
- IC50 [11]: 10.5 nM

Structure (SMILES): CCC(=C(c1ccc(O)cc1)c1ccc(OCCN(C)C(=O)COCCOCCOCCOc2cccc(C(=O)c3csc([C@@H]4CCCN4C(=O)[C@@H](NC(=O)[C@H](C)NC)C4CCCCC4)n3)c2)cc1)c1ccccc1
- DC50 [12]: < 3 nM
- IC50 [13]: 15.6 nM
- IC50 [14]: 9.6 nM

Structure (SMILES): CCC(=C(c1ccc(O)cc1)c1ccc(OCCN(C)C(=O)COCCOCCOCCOc2cccc(O[C@H]3C[C@@H](C(=O)N[C@@H]4CCCc5ccccc54)N(C(=O)[C@@H](NC(=O)[C@H](C)NC)C4CCCCC4)C3)c2)cc1)c1ccccc1
- DC50 [12]: < 3 nM

Structure (SMILES): CN[C@@H](C)C(=O)N[C@H](C(=O)N1Cc2cc(OCCOCCOCCOCCOc3ccc(Oc4c(-c5ccc(O)cc5)sc5cc(O)ccc45)cc3)ccc2C[C@H]1C(=O)N[C@@H]1CCCc2ccccc21)C(C)(C)C
- Activity [15]: > 50%

Structure (SMILES): Cc1ncsc1-c1ccc([C@H](C)NC(=O)[C@@H]2C[C@@H](O)CN2C(=O)[C@@H](NC(=O)CCCCOc2ccc(CNNC(=O)c3ccc(C(=O)c4c(-c5ccc(O)cc5)sc5cc(O)ccc45)cc3)cc2)C(C)(C)C)cc1
- IC50 [1]: 17 nM
- IC50 [3]: 13.2 nM
- Imax [4]: 69%
- Imax [5]: 78%
- DC50 [7]: 1.13 nM
- Imax [8]: 98%
